Read-outs that look alike come from different tables or passages of the source.
Assays:
PC3 cells = assay: MTT cell proliferation assay, PC3; assay type: cell-based; conditions: Homo sapiens, PC-3, 48 hr
Source text: (§1) BI2536 was purchased from Selleck (Selleck, USA).

HepG2 cells = assay: MTT cell proliferation assay, HepG2; assay type: cell-based; conditions: Homo sapiens, 48 hr
Source text: as §1

MRC5 cells [1] = assay: cells; conditions: Homo sapiens, MRC5, 48 h, read-out: IC50 MRC5, MTT, 48 hr, non-cancer cells
Method: (§2) All the beta-carboline derivatives were provided by Xinjiang Huashidan Pharmaceutical Co. Ltd. The culture media and fetal bovine serum (FBS) were purchased from Hyclone (Hyclone Laboratories Inc., USA). […] All the cell lines were obtained from the Cell Culture Centre, Institute of Basic Medical Science, Chinese Academy of Medical Science and incubated at 37°C supplied with 5% CO2. HeLa cells were grown in standard DMEM with 10% FBS.
(§3) MRC5, HeLa, HepG2, PC3 and MG63 cells were seeded at 3000–6000 cells/well (200 µl/well) in a 96-well plate and incubated overnight. Then different concentrations of compounds were added into the cell cultures with a final concentration of 0.1% DMSO and incubated for an additional 48 hr. After that, 22 µl MTT solution (5 mg/ml) was added into each well and incubated at 37°C for 4 hr.

[2] = test system: cdc5-2 mutant yeast cells; assay: Yeast growth inhibition (MIC), cdc5-2 mutant; conditions: 25°C, 24 hr
Method: The Cdc5 kinase is the functional homologue of PLK1 in budding yeast and the incubation of cdc5-2 mutants at 37°C impairs the kinase activity and stops cell growth. […] We also compared the sensitivity of wild-type and cdc5-2 mutant cells to the selected compounds at different concentrations. […] The temperature sensitive cdc5-2 mutants and wild-type strains were used. […] After incubation at 25°C for 24 hr, the growth of the yeast cells was determined by measuring OD600.

MRC5 cells [3] = conditions: read-out: IC50 MRC5; MTT, 48 hr, non-cancer cells
Method: as §2, §3

[4] = test system: cyclin B1 protein in HeLa cells; assay: Cyclin B1 protein level (Western blotting, FACS); assay type: cell-based, human; conditions: 1.21 µM, 24 hr
Method: As the inhibitory kinase for cyclin-dependent kinase (CDK), Wee1 is one of the substrates of PLK1 and this phosphorylation stimulates Wee1 degradation. We expect that the inhibition of PLK1 impairs the phosphorylation of Wee1, thereby resulting in elevated Wee1 protein levels. To test this possibility, we examined the protein levels of Wee1 in HeLa cells after treatment with 1.21 µM beta-carboline compounds for 24 hr. […] PLK1 also phosphorylates cyclin B1 and this phosphorylation promotes the nuclear localization of cyclin B1 [36]. After treatment with these beta-carboline compounds, a slight increase of cyclin B1 protein was observed (Figure 6B), and this increase could be a consequence of accumulation of cells in G2/M phase. However, the change of cyclin B1 levels is much less significant compared to the increase of Wee1 levels after treatment with these compounds.
HeLa cells were incubated with or without 1.21 µM DH281, DH285 and DH287 for 24 hr. The cells were washed twice with cold 1×PBS and lysed in RAPI buffer (Applygen technologies Inc.) for 30 min and centrifuged at 14,000 rpm for 20 min at 4°C. We separated 15 µl of total protein (1 µg/ µl) with 12% SDS-PAGE gels and transferred the proteins to PVDF membrane. […] The protein bands were detected using ECL System (Piscataway, New Jersey, USA). […]

MRC5 cells [5] = assay: FITC-Annexin V/PI apoptosis assay, MRC5; assay type: cell-based, Human; conditions: 48 hr
Source text: Staining with Annexin V–FITC and propidium iodide (PI) is commonly used to distinguish apoptotic, necrotic, and dead cells. PI is impermeant to live cells and apoptotic cells at early stages, but it stains dead cells and apoptotic cells at late stages through its binding to the nucleic acids. Apoptotic cells in early or late stages are stained positively for Annexin V-FITC that binds to phosphotidylserine. We used FACS analysis to determine the proportion of HeLa cells positive for Annexin V-FITC (FITC), PI, or both. The HeLa cells with PI^−/PI^+ FITC^+ were counted as apoptotic cells (Figure 5). […] However, 16.19% (3.96+12.23) of HeLa cells became FITC positive after treatment with 1.05 µM DH281 for 48 hr. The treatment with 5.25 µM DH281 induced apoptosis among 89.6% (89.51+0.09) of HeLa cells (Table 5). […] In contrast to HeLa cells, the induction of apoptosis by DH281 was much less efficient in non-cancer MRC5 cells (Table 5). Therefore, we conclude that the treatment with compounds DH281, DH285 and DH287 induces substantial apoptosis in HeLa cells, but non-cancer MRC5 cells are much less sensitive to the treatment. The distinct apoptotic responses of HeLa and MRC5 cells to beta-carboline compounds could explain the selectivity of PLK1 inhibitors toward cancer cells.
HeLa cells were either treated with 0, 0.21, 1.05 and 5.25 µM of DH281, DH285 and DH287 for 48 hr, or treated with 1.21 µM compounds for 24, 48 and 72 hr, while MRC5 cells were exposed to compounds at 0, 0.21, 1.05, and 5.25 µM for 48 hr. The cultured cells were harvested, washed three times with PBS, and resuspended in 500 µl binding buffer (10 mM Hepes/sodium hydroxide (pH7.4), 140 mM sodium chloride, and 2.5 mM CaCl2). Then 5 µl FITC-labeled Annexin V (Zhongshan JinQiao Biotechnology Ltd., Beijing) was added and the cells were incubated in the dark for 10 min. We added 5 µl of propidium iodide (PI) (10 µg/ml in binding buffer) to each sample before flow cytometry analysis.

Compound	IC50 (PC3 cells) [µM]	IC50 (HepG2 cells) [µM]	IC50 (MRC5 cells [1]) [µM]	difference in the MICs, cdc5-2 compared to wild-type cells [2] [fold]	IC50 (MRC5 cells [3]) [µM]	cyclin B1 protein level [4]	PI+ FITC+ (late apoptotic cells) (MRC5 cells [5]; MRC5, 0.21 µM) [%]	PI+ FITC− (dead cells) (MRC5 cells [5]; MRC5, 0.21 µM) [%]	PI− FITC− (live cells) (MRC5 cells [5]; MRC5, 0.21 µM) [%]	PI+ FITC+ (late apoptotic cells) (MRC5 cells [5]; MRC5, 1.05 µM) [%]	PI+ FITC− (dead cells) (MRC5 cells [5]; MRC5, 1.05 µM) [%]	PI− FITC+ (early apoptotic cells) (MRC5 cells [5]; MRC5, 1.05 µM) [%]	PI− FITC− (live cells) (MRC5 cells [5]; MRC5, 1.05 µM) [%]	PI+ FITC+ (late apoptotic cells) (MRC5 cells [5]; MRC5, 5.25 µM) [%]	PI+ FITC− (dead cells) (MRC5 cells [5]; MRC5, 5.25 µM) [%]	PI− FITC+ (early apoptotic cells) (MRC5 cells [5]; MRC5, 5.25 µM) [%]	PI− FITC− (live cells) (MRC5 cells [5]; MRC5, 5.25 µM) [%]
Cc1c2c(cc[n+]1Cc1ccccc1)c1ccc(OCc3ccccc3)cc1n2Cc1ccccc1 [DH287]	2.86 ± 0.19	10.7 ± 0.31	3.03	2 to 4	3.06 ± 0.69	did not show a significant increase of cyclin B1 protein	–	–	–	–	–	–	–	–	–	–	–
Cc1c2c(cc[n+]1Cc1ccccc1)c1ccc(OCc3ccc(F)cc3)cc1n2CCCc1ccccc1 [DH281]	0.94 ± 0.23	2.24 ± 0.04	4.73 ± 0.51	2 to 4	–	did not show a significant increase of cyclin B1 protein	5.07	1.63	92.4	0.59	0.01	13.3	86.1	7.76	10.5	18.5	63.2

— PMC3463587, “A Series of Beta-Carboline Derivatives Inhibit the Kinase Activity of PLKs” (PLoS ONE, 2012)
